The record followed here is patent US8791273B2, “4R,5S-enantiomer of 2-(5-methyl-2-oxo-4-phenyl-pyrrolidin-1-yl)-acetamide with nootropic activity” (JSC Grindeks, priority 2009, dated 2014).

Marks after values point to notes of the source that are not given here.

A word on the melting point: it is the temperature of the solid-liquid transition.

The subject of one series is ICR male mice. As to the kind of experiment: Passive avoidance test (learning and memory). In kind it is in vivo. The settings on record: for Latent time (retention latency to cross into the dark compartment): intraperitoneally 46 μmol/kg 60 min before the training trial, retention test 24 hours later, cut-off 300 s, mean±S.E.M, n≧10. The protocol:
Passive avoidance test was performed in a shuttle-box apparatus (Ugo Basile, Italy) with two communicating compartments of equal size (20×10×16 cm) and a stainless steel grid floor (bars spaced 0.7 cm apart). The right-hand compartment (shock compartment) was painted black to obtain a dark chamber. The left-hand compartment was painted white and illuminated by a bulb (100 W) installed on the top of plexiglass cover. These compartments were separated by a guillotine door (5×4 cm). On day 1 (training trial), mice were placed in the illuminated compartment and the door between the two compartments was opened 60 s later. When mice entered the dark compartment with all four feet, the door automatically closed and an inescapable electrical foot shock (0.1 mA; 3 s) was delivered through the grid floor. Latency to cross into the dark compartment (training latency) was automatically measured. The retention test was performed 24 hours later (day 2). Mice were placed into the light (safe) compartment, with access to the dark one (within 10 s) for a period of 300 s (cut-off time). The latency to cross into the dark compartment with all four feet was automatically measured (retention latency).
Effects of 2-(4R-phenyl-2-oxopyrrolidin-1-yl)acetamide), racemic 2-(5-methyl-2-oxo-4-phenyl-pyrrolidin-1-yl)-acetamide and 2-(5S-methyl-2-oxo-4R-phenyl-pyrrolidin-1-yl)-acetamide on retention of passive avoidance response (memory) in ICR male mice.
The compounds were administered intraperitoneally at the dose of 46 μmol/kg 60 min before the training trial (day 1). The saline control group was run concurrently with the drug-treated groups. The statistical analysis was performed by Student's t-test. Data represent mean±S.E.M *p<0.05, ^#p<0.05, ^$p<0.05 versus saline control group, 2-(4R-phenyl-2-oxopyrrolidin-1-yl)acetamide-treated group and racemic2-(5-methyl-2-oxo-4-phenyl-pyrrolidin-1-yl)-acetamide-treated group, respectively; n≧10

Regarding `CC1C(c2ccccc2)CC(=O)N1CC(N)=O` (racemic) [2-(5-methyl-2-oxo-4-phenyl-pyrrolidin-1-yl)-acetamide racemic, 2-(5-methyl-2-oxo-4-phenyl-pyrrolidin-1-yl)-acetamide], in the series on ICR male mice, the “Latent time (retention latency to cross into the dark compartment)” value (from here on “Latent time”) is reported as 74.2 ± 19.9 s.

For `NC(=O)CN1C[C@@H](c2ccccc2)CC1=O` [2-(4R-phenyl-2-oxopyrrolidin-1-yl)acetamide, reference compound], the “Latent time” value in the series on ICR male mice came out at 94.9 ± 27.6 s.

`C[C@H]1[C@@H](c2ccccc2)CC(=O)N1CC(N)=O` [2-(5S-methyl-2-oxo-4R-phenyl-pyrrolidin-1-yl)-acetamide] returned a melting point of 169 to 171 °C. Also, the “effect on memory in the passive avoidance task” value with ICR male mice (dose of 46 μmol/kg, Student's t-test) is recorded as “statistically significant effect on memory”. Also, the “Latent time” value in the series on ICR male mice is 170.6 ± 41.9* ^#$ s.
